This note sets out measurements from ChEMBL document CHEMBL3045134, “Synthesis, molecular modeling and anti-inflammatory screening of new 1,2,3-benzotriazinone derivatives” (Med Chem Res, 2012).

The test system of data set [1] is Rattus norvegicus. Briefly: Anti-inflammatory activity carrageenan-induced paw edema in Rattus norvegicus albino (rat) assessed as paw thickness at 9 mg/kg, ip administered 1 hr prior to carrageenan-induced measured 4 hr post challenge. The following applies: route intraperitoneal. The format is functional. (In the carrageenan paw model, swelling and tenderness develop within hours.)

In data set [2] the test system is Rattus norvegicus. Briefly: Anti-inflammatory activity carrageenan-induced paw edema in Rattus norvegicus albino (rat) at 9 mg/kg, ip administered 1 hr prior to carrageenan-induced measured 1 to 4 hr post challenge relative to control. Format: functional. The following applies: route intraperitoneal.
Data set [3] concerns Rattus norvegicus. Briefly: Anti-inflammatory activity inRattus norvegicus albino (rat) assessed as reduction in carrageenan-induced paw edema at 10 mg/kg, ip administered 1 hr prior to carrageenan-induced measured 1 to 4 hr post challenge relative to indomethacin. Format: functional. Also noted: scale not given: the % may be the effect or the level left. The following applies: route intraperitoneal.

Data set [4] concerns Rattus norvegicus. Briefly: Anti-inflammatory activity carrageenan-induced paw edema inRattus norvegicus albino (rat) assessed as paw thickness at 9 mg/kg, ip administered 1 hr prior to carrageenan-induced measured 2 hr post challenge. Format: functional. The following applies: route intraperitoneal.
The test system of data set [5] is Rattus norvegicus. Briefly: Ulcerogenicity in Rattus norvegicus albino (rat) at 0.9 mg/100 g/day, po qd for 3 successive days. The format is toxicity, organism-based. Conditions: in vivo.
Data set [6] has as its system Rattus norvegicus. Briefly: Anti-inflammatory activity carrageenan-induced paw edema inRattus norvegicus albino (rat) assessed as paw thickness at 9 mg/kg, ip administered 1 hr prior to carrageenan-induced measured 3 hr post challenge. The following applies: route intraperitoneal. The format is functional.
Data set [7] concerns Rattus norvegicus. Briefly: Anti-inflammatory activity carrageenan-induced paw edema inRattus norvegicus albino (rat) assessed as paw thickness at 9 mg/kg, ip administered 1 hr prior to carrageenan-induced measured 1 hr post challenge. Format: functional. The following applies: route intraperitoneal.
Data set [8] deals with Rattus norvegicus. Briefly: Ulcerogenicity in Rattus norvegicus albino (rat) at 9 mg/kg/day, po qd for 3 successive days. Also noted: route oral. The following applies: in vivo. The format is toxicity, organism-based.
The subject of data set [9] is Rattus norvegicus. Put plainly: Anti-inflammatory activity carrageenan-induced paw edema in Rattus norvegicus albino (rat) assessed as paw thickness at 10 mg/kg, ip administered 1 hr prior to carrageenan-induced measured 1 hr post challenge. Format: functional. Conditions: route intraperitoneal.
Data set [10] concerns Rattus norvegicus. Briefly: Anti-inflammatory activity carrageenan-induced paw edema in Rattus norvegicus albino (rat) assessed as paw thickness at 10 mg/kg, ip administered 1 hr prior to carrageenan-induced measured 3 hr post challenge. Format: functional. Conditions: route intraperitoneal.
Data set [11] has as its system Rattus norvegicus. Put plainly: Anti-inflammatory activity carrageenan-induced paw edema in Rattus norvegicus albino (rat) assessed as paw thickness at 10 mg/kg, ip administered 1 hr prior to carrageenan-induced measured 4 hr post challenge. The following applies: route intraperitoneal. The format is functional.
Data set [12] has as its system Rattus norvegicus. Briefly: Anti-inflammatory activity carrageenan-induced paw edema in Rattus norvegicus albino (rat) assessed as paw thickness at 10 mg/kg, ip administered 1 hr prior to carrageenan-induced measured 2 hr post challenge. Format: functional. The following applies: route intraperitoneal.
Data set [13] has as its system Rattus norvegicus. Put plainly: Anti-inflammatory activity carrageenan-induced paw edema in Rattus norvegicus albino (rat) at 10 mg/kg, ip administered 1 hr prior to carrageenan-induced measured 1 to 4 hr post challenge relative to control. The following applies: route intraperitoneal. The format is functional.

On to `Cc1ccc(NC(=O)Cn2nnc3ccccc3c2=O)cc1`, for which the Activity was 4.12 mm in the data set on Rattus norvegicus [1]; 63.23% in the data set with Rattus norvegicus [2]; 36.7746% in the data set on Rattus norvegicus [3]; 3.1 mm in the data set with Rattus norvegicus [4]; 4 mm in the data set with Rattus norvegicus [6]; 2.62 mm in the data set on Rattus norvegicus [7]. The UI in the data set with Rattus norvegicus [5] was found to be 140.
With `Cc1ccc(C)n1NC(=O)Cn1nnc2ccccc2c1=O`, the Activity is given as 4.25 mm in the data set on Rattus norvegicus [1]; 65.95% with Rattus norvegicus [2]; 34.046% with Rattus norvegicus [3]; 4.75 mm with Rattus norvegicus [4]; 4.75 mm in the data set with Rattus norvegicus [6]; 3.75 mm in the data set on Rattus norvegicus [7]. The UI in the data set with Rattus norvegicus [5] was 220.
Consider `Cc1cc(C)n(C(=O)Cn2nnc3ccccc3c2=O)n1`, for which the Activity is recorded as 3.75 mm in the data set on Rattus norvegicus [1]; 66.69% in the data set with Rattus norvegicus [2]; 33.313% with Rattus norvegicus [3]; 2.75 mm with Rattus norvegicus [4]; 3.5 mm in the data set on Rattus norvegicus [6]; 2.12 mm with Rattus norvegicus [7]. Also, the UI with Rattus norvegicus [5] is 140.
Regarding `Cc1cc(-c2ccccc2)n(C(=O)Cn2nnc3ccccc3c2=O)n1`, the Activity in the data set on Rattus norvegicus [1] amounted to 3.75 mm; in the data set on Rattus norvegicus [2], 45.8%; with Rattus norvegicus [3], 54.2048%; in the data set with Rattus norvegicus [4] it was 4.37 mm; in the data set with Rattus norvegicus [6], 4.5 mm; in the data set with Rattus norvegicus [7] it was 3.25 mm. Also, the UI with Rattus norvegicus [5] was 120.
As for `O=c1c2ccccc2nnn1Cc1nnc(Nc2ccccc2)s1`, the Activity came to 5.25 mm in the data set on Rattus norvegicus [1]; 70.7% in the data set with Rattus norvegicus [2]; 29.3016% in the data set with Rattus norvegicus [3]; 4.2 mm in the data set with Rattus norvegicus [4]; 4.62 mm in the data set with Rattus norvegicus [6]; 3.75 mm in the data set on Rattus norvegicus [7]. In the data set with Rattus norvegicus [5], the UI is given as 340.
With `O=c1c2ccccc2nnn1Cc1nnc(Nc2ccccc2)o1`, the Activity in the data set on Rattus norvegicus [1] stood at 5.25 mm; in the data set on Rattus norvegicus [2] it was 70.7%; in the data set on Rattus norvegicus [3], 29.3016%; with Rattus norvegicus [4], 4.2 mm; in the data set on Rattus norvegicus [6] it was 4.62 mm; in the data set with Rattus norvegicus [7] it was 3.75 mm. In addition, in the data set on Rattus norvegicus [5], the UI stood at 340.
For `O=C(Cn1nnc2ccccc2c1=O)N/N=c1/scc(-c2ccccc2)n1-c1ccccc1`, the Activity with Rattus norvegicus [1] stood at 5.12 mm; in the data set on Rattus norvegicus [2] it was 54.06%; in the data set with Rattus norvegicus [3], 45.9377%; in the data set on Rattus norvegicus [4] it was 4.75 mm; in the data set with Rattus norvegicus [6] it was 5 mm; in the data set on Rattus norvegicus [7], 4 mm. Further, in the data set on Rattus norvegicus [5], the UI worked out at 300.
Consider `COc1cccc(NC(=O)Cn2nnc3ccccc3c2=O)c1`, for which the Activity was determined as 3.25 mm with Rattus norvegicus [1]; 61.27% with Rattus norvegicus [2]; 38.7294% in the data set on Rattus norvegicus [3]; 3.12 mm in the data set on Rattus norvegicus [4]; 3.25 mm in the data set with Rattus norvegicus [6]; 2.75 mm in the data set on Rattus norvegicus [7]. The compound further had a UI in the data set with Rattus norvegicus [5] of 240.
As for `COc1ccccc1NC(=O)Cn1nnc2ccccc2c1=O`, the Activity in the data set with Rattus norvegicus [1] is reported as 4.25 mm; with Rattus norvegicus [2] it was 47.8314%; in the data set on Rattus norvegicus [3], 52.1686%; in the data set with Rattus norvegicus [4], 5.25 mm; with Rattus norvegicus [6], 4 mm; in the data set on Rattus norvegicus [7] it was 3.8 mm. Besides, the UI with Rattus norvegicus [5] was 210.
For the compound `Cc1ccccc1NC(=O)Cn1nnc2ccccc2c1=O`, the Activity in the data set on Rattus norvegicus [1] is 4.25 mm; in the data set on Rattus norvegicus [2] it was 66.08%; with Rattus norvegicus [3], 33.9238%; in the data set with Rattus norvegicus [4] it was 4 mm; in the data set on Rattus norvegicus [6], 4 mm; with Rattus norvegicus [7], 4.4 mm. In the data set with Rattus norvegicus [5], the UI was 240.
For `CC(=O)c1ccc(NC(=O)Cn2nnc3ccccc3c2=O)cc1`, the Activity in the data set with Rattus norvegicus [1] was 4.37 mm; in the data set with Rattus norvegicus [2] it was 52.25%; in the data set on Rattus norvegicus [3] it was 47.7499%; in the data set on Rattus norvegicus [4], 3.87 mm; in the data set with Rattus norvegicus [6] it was 3.37 mm; in the data set on Rattus norvegicus [7], 3.87 mm. For the same compound, in the data set with Rattus norvegicus [5], the UI turned out to be 130.
Take `O=C(Cn1nnc2ccccc2c1=O)Nc1ccccc1`: the Activity in the data set on Rattus norvegicus [1] came out at 3.8 mm; with Rattus norvegicus [2], 58.22%; in the data set on Rattus norvegicus [3], 41.7838%; in the data set on Rattus norvegicus [4], 4.25 mm; in the data set with Rattus norvegicus [6], 4.1 mm; in the data set with Rattus norvegicus [7], 4.5 mm. The same compound showed a UI in the data set on Rattus norvegicus [5] of 300.
In the case of `Cc1ccc(-c2cc(C(F)(F)F)nn2-c2ccc(S(N)(=O)=O)cc2)cc1` [CELECOXIB], the Activity in the data set with Rattus norvegicus [1] amounted to 3.87 mm; in the data set on Rattus norvegicus [2] it was 42.94%; in the data set on Rattus norvegicus [3], 57.0556%; with Rattus norvegicus [4], 3.37 mm; in the data set with Rattus norvegicus [6] it was 3.75 mm; in the data set on Rattus norvegicus [7], 3.22 mm. Moreover, in the data set with Rattus norvegicus [8], the UI came to 120.
On to `COc1ccc2c(c1)c(CC(=O)O)c(C)n2C(=O)c1ccc(Cl)cc1` [INDOMETHACIN], for which the Activity in the data set on Rattus norvegicus [9] came out at 2.12 mm; with Rattus norvegicus [10] it was 3.25 mm; with Rattus norvegicus [11], 3.75 mm; in the data set with Rattus norvegicus [12] it was 2.25 mm; with Rattus norvegicus [13], 100%. Besides, the UI in the data set with Rattus norvegicus [8] is on record as 450.
